Measured values as given in ChEMBL document CHEMBL3414470, “Synthesis and biological evaluation of 4-oxycoumarin derivatives as a new class of antifilarial agents” (Eur J Med Chem, 2015).
Converted amounts (≈) assume the structure as drawn. The source made the active and inactive calls. The rule behind the calls is not given here.

How the values were obtained:
[1] = test system: Brugia malayi; assay: Antifilarial activity against Brugia malayi adult worm assessed as reduction in motility after 5 days by MTT dye reduction assay; type: functional, organism-based
[2] = test system: Brugia malayi; assay: Antifilarial activity against Brugia malayi adult worm infected in jird model assessed as sterile female at 100 mg/kg, sc after 5 days measured till day 45 relative to control; type: functional; settings: route subcutaneous
[3] = test system: Brugia malayi; assay: Antifilarial activity against Brugia malayi microfilaria assessed as reduction in motility after 5 days by MTT dye reduction assay; type: functional, organism-based
[4] = test system: Brugia malayi; assay: Antifilarial activity against Brugia malayi adult worm infected in jird model assessed as adulticidal activity at 100 mg/kg, sc after 5 days measured till day 45 relative to control; type: functional; settings: route subcutaneous
[5] = test system: Brugia malayi; assay: Antifilarial activity against Brugia malayi microfilariae infected in jird model assessed as microfilaricidal activity at 100 mg/kg, sc after 5 days measured till day 45 relative to control; type: functional; settings: route subcutaneous
[6] = (§1) Cytotoxicity against African green monkey Vero cells after 72 hrs by resazurin dye-based fluorescence assay; type: cell-based; settings: chlorocebus sabaeus, Vero cells
[7] = test system: Brugia malayi; assay: Antifilarial activity against Brugia malayi microfilaria assessed as reduction in motility at 0.156 uM after 5 days by MTT dye reduction assay; type: functional; settings: 120 h
[8] = Selectivity index, ratio of CC50 for African green monkey Vero cells to IC50 for Brugia malayi microfilaria; type: functional
[9] = test system: Brugia malayi; assay: Antifilarial activity against Brugia malayi adult worm assessed as reduction in motility at 0.039 uM after 5 days by MTT dye reduction assay; type: functional; settings: 120 h
[10] = Selectivity index, ratio of CC50 for African green monkey Vero cells to IC50 for Brugia malayi adult worm; type: functional
[11] = test system: Brugia malayi; assay: Antifilarial activity against Brugia malayi microfilaria assessed as reduction in motility at 0.078 uM after 5 days by MTT dye reduction assay; type: functional; settings: 120 h
[12] = test system: Brugia malayi; assay: Antifilarial activity against Brugia malayi microfilaria assessed as reduction in motility at 0.312 uM after 5 days by MTT dye reduction assay; type: functional; settings: 120 h
[13] = test system: Brugia malayi; assay: Antifilarial activity against Brugia malayi microfilaria assessed as reduction in motility at 0.039 uM after 5 days by MTT dye reduction assay; type: functional; settings: 120 h
[14] = test system: Brugia malayi; assay: Antifilarial activity against Brugia malayi adult worm assessed as reduction in motility at 0.019 uM after 5 days by MTT dye reduction assay; type: functional; settings: 120 h
[15] = test system: Brugia malayi; assay: Antifilarial activity against Brugia malayi adult worm assessed as reduction in motility at 0.078 uM after 5 days by MTT dye reduction assay; type: functional; settings: 120 h
[16] = test system: Brugia malayi; assay: Antifilarial activity against Brugia malayi adult worm assessed as reduction in motility at 0.312 uM after 5 days by MTT dye reduction assay; type: functional; settings: 120 h
[17] = test system: Brugia malayi; assay: Antifilarial activity against Brugia malayi microfilaria assessed as reduction in motility at 0.019 uM after 5 days by MTT dye reduction assay; type: functional; settings: 120 h
[18] = test system: Brugia malayi; assay: Antifilarial activity against Brugia malayi adult worm assessed as reduction in motility at 0.156 uM after 5 days by MTT dye reduction assay; type: functional; settings: 120 h
[19] = test system: Brugia malayi; assay: Antifilarial activity against Brugia malayi microfilaria assessed as reduction in motility at 5 uM after 5 days by MTT dye reduction assay; type: functional; settings: 120 h
[20] = test system: Brugia malayi; assay: Antifilarial activity against Brugia malayi microfilaria assessed as reduction in motility at 1.25 uM after 5 days by MTT dye reduction assay; type: functional; settings: 120 h
[21] = test system: Brugia malayi; assay: Antifilarial activity against Brugia malayi adult worm assessed as reduction in motility at 0.625 uM after 5 days by MTT dye reduction assay; type: functional; settings: 120 h
[22] = test system: Brugia malayi; assay: Antifilarial activity against Brugia malayi adult worm assessed as reduction in motility at 5 uM after 5 days by MTT dye reduction assay; type: functional; settings: 120 h
[23] = test system: Brugia malayi; assay: Antifilarial activity against Brugia malayi adult worm assessed as reduction in motility at 2.5 uM after 5 days by MTT dye reduction assay; type: functional; settings: 120 h
[24] = test system: Brugia malayi; assay: Antifilarial activity against Brugia malayi microfilaria assessed as reduction in motility at 2.5 uM after 5 days by MTT dye reduction assay; type: functional; settings: 120 h
[25] = test system: Brugia malayi; assay: Antifilarial activity against Brugia malayi adult worm assessed as reduction in motility at 1.25 uM after 5 days by MTT dye reduction assay; type: functional; settings: 120 h
[26] = test system: Brugia malayi; assay: Antifilarial activity against Brugia malayi microfilaria assessed as reduction in motility at 0.625 uM after 5 days by MTT dye reduction assay; type: functional; settings: 120 h
[27] = test system: Vero; assay: as §1; type: cell-based; settings: chlorocebus sabaeus, vero, 72 h
[28] = test system: Brugia malayi; assay: Ratio of ivermectin IC50 to compound IC50 for Brugia malayi microfilariae; type: functional
[29] = test system: Brugia malayi; assay: Ratio of ivermectin IC50 to compound IC50 for Brugia malayi adult worm; type: functional

Row | Compound | Activity [2] [%] | Activity [4] [%] | Activity [5] [%] | IC50 ([1]; Brugia malayi, 120 h) [µM] | MIC ([1]; Brugia malayi, 120 h) [µM] | CC50 at 72 h [6] [µM] | inhibition at 0.156 µM [7] [%] | Ratio CC50/IC50 [8] | inhibition at 0.039 µM [9] [%] | Ratio CC50/IC50 [10] | IC50 ([3]; Brugia malayi, 120 h) [µM] | MIC ([3]; Brugia malayi, 120 h) [µM] | inhibition at 0.078 µM [11] [%] | inhibition at 0.312 µM [12] [%] | inhibition at 0.039 µM [13] [%] | inhibition at 0.312 µM [16] [%] | inhibition at 1.25 µM [20] [%] | inhibition at 0.625 µM [21] [%] | inhibition at 1.25 µM [25] [%] | inhibition at 0.625 µM [26] [%] | other results
1 | CCN(CC)C(=O)N1CCN(C)CC1 [DIETHYLCARBAMAZINE] | 0 | 33.3 | 39.5 |  |  |  |  |  |  |  |  |  |  |  |  |  |  |  |  |  | MIC [1]: inactive; MIC [3]: inactive
2 | CCCCCCCC/C=C/CCCCCCCCNCC(O)COc1cc(=O)oc2ccccc12 (centres undefined) | 16.6 | 69.4 | 50.9 | 0.094 | 0.31 (≈ 0.151 µg/mL) | > 100 | 75 | >7692 | 10.2 | >1063 | 0.013 | 0.31 (≈ 0.151 µg/mL) | 75 | 100 | 50 | 90.4 |  |  |  |  | inhibition at 0.019 µM [14]: 8.5%; inhibition at 0.078 µM [15]: 42%; inhibition at 0.019 µM [17]: 50%; inhibition at 0.156 µM [18]: 45%
3 | CN1CCN(CC(O)COc2cc(=O)oc3ccccc23)CC1 (centres undefined) | 0 | 44.4 | 30.4 | 1.73 | 5 (≈ 1.59 µg/mL) | > 100 |  | >357.14 |  | >57.8 | 0.28 | 2.5 (≈ 0.796 µg/mL) |  | 75 |  | 11.8 | 75 | 29.8 | 38.7 | 75 | inhibition at 5 µM [19]: 100%; inhibition at 5 µM [22]: 85.6%; inhibition at 2.5 µM [23]: 45.8%; inhibition at 2.5 µM [24]: 75%
4 | IVERMECTIN |  |  |  |  |  |  |  |  |  |  |  |  |  |  |  |  |  |  |  |  | IC50 [1]: 1.8 µM; CC50 [27]: 53.1 µM; IC50 [3]: 4 µM
5 | Cc1ccc(NCC(O)COc2cc(=O)oc3ccccc23)cc1 (centres undefined) | 0 | 24.8 | 31.7 | 1.38 | 5 (≈ 1.63 µg/mL) | > 100 |  | >555.5 |  | >72.4 | 0.18 | 2.5 (≈ 0.813 µg/mL) |  | 75 |  | 9.6 | 75 | 8.9 | 12.8 | 75 | inhibition at 5 µM [19]: 100%; inhibition at 5 µM [22]: 78.9%; inhibition at 2.5 µM [23]: 38.6%; inhibition at 2.5 µM [24]: 75%
6 | CCCCCCCCCCCCNCC(O)COc1cc(=O)oc2ccccc12 (centres undefined) | 19.3 | 74.9 | 50.8 | 0.014 | 1.25 (≈ 0.504 µg/mL) | > 100 | 75 | >17857 | 50 | >7142 | 0.0056 | 0.625 (≈ 0.252 µg/mL) | 75 | 75 | 75 | 90.8 | 100 | 92.4 | 99.5 | 75 | Ratio IC50 [28]: 714; inhibition at 0.019 µM [14]: 30%; inhibition at 0.078 µM [15]: 56%; inhibition at 0.019 µM [17]: 50%; inhibition at 0.156 µM [18]: 75.5%; Ratio IC50 [29]: 129
